Test results: PMC8213057, “Targeting ALK2: An Open Science Approach to Developing Therapeutics for the Treatment of Diffuse Intrinsic Pontine Glioma” (Journal of Medicinal Chemistry, 2020)

Legend:
CDK3/cyclin E = CDK3/cyclin E (Homo sapiens, UniProt Q00526); experiment: biochemical; conditions: read-out: % enzyme activity, 1 μM; Run 1, Run 2
COT1/MAP3K8 = COT1/MAP3K8 (Homo sapiens, UniProt P41279); conditions: 1 μM; Run 1, Run 2
BRAF = target: T1, BRAF (Homo sapiens, UniProt P15056); experiment: 375-member kinase panel; format: biochemical; conditions: Run 1, Run 2; for % enzyme activity: 1 μM; for remaining activity at 1 µM: read-out: % enzyme activity, 1 μM
T1 construct: purchased Reaction Biology Corporation

KSR2 = target: T2, KSR2 (Homo sapiens, UniProt Q6VAB6); experiment: biochemical; conditions: read-out: % enzyme activity, 1 μM; Run 1, Run 2
T2 sequence (Q6VAB6 1-950): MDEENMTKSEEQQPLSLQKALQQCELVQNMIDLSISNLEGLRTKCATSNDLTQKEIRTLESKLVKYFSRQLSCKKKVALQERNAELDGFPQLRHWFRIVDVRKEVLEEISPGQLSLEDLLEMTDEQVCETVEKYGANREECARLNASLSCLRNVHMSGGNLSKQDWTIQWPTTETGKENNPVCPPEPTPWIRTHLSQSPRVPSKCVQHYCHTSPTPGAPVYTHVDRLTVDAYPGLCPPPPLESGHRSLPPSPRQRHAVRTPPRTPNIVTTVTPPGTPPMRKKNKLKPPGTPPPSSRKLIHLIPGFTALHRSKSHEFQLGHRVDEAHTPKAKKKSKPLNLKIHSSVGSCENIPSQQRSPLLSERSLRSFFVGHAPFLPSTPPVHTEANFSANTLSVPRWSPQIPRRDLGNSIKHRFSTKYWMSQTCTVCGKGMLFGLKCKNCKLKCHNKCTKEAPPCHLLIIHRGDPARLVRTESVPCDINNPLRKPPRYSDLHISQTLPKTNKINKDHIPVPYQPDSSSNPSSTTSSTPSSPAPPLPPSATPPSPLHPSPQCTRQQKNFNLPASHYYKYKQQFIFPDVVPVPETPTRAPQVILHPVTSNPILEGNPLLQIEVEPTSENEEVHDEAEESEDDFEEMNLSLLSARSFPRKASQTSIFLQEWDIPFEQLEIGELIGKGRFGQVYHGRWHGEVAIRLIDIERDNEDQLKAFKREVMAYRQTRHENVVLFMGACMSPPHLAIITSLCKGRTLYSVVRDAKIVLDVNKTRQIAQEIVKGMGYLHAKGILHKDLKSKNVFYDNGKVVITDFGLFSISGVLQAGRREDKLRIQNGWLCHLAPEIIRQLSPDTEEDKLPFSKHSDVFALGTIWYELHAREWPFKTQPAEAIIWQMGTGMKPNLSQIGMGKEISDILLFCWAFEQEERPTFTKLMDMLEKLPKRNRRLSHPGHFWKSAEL

LKB1 = target: T3, LKB1 (Homo sapiens, UniProt Q15831); conditions: 1 μM; Run 1, Run 2
T3 sequence (Q15831 1-433): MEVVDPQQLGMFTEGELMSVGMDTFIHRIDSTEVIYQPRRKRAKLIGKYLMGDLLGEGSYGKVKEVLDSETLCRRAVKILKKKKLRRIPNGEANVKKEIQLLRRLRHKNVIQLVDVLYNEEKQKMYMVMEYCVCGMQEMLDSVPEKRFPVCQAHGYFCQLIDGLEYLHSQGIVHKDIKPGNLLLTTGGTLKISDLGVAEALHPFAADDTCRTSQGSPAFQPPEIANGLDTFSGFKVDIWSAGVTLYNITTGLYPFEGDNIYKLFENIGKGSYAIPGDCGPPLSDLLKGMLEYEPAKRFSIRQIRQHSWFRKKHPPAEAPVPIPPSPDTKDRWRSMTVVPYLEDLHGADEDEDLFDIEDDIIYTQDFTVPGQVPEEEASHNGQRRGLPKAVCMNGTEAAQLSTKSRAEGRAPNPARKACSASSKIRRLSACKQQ
T3 sequence (Q7RTN6 1-431 partner): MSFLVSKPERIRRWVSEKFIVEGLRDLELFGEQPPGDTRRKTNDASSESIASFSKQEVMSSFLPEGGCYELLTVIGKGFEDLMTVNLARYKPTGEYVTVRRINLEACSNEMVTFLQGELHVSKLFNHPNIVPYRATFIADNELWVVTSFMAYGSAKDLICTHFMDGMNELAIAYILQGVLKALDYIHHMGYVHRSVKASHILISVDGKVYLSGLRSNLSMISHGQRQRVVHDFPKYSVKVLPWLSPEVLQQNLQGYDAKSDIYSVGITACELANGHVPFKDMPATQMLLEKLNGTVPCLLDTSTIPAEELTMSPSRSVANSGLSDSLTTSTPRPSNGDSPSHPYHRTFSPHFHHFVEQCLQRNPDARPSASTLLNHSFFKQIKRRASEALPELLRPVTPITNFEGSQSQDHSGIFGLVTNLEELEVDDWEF
T3 sequence (Q9Y376 1-341 partner): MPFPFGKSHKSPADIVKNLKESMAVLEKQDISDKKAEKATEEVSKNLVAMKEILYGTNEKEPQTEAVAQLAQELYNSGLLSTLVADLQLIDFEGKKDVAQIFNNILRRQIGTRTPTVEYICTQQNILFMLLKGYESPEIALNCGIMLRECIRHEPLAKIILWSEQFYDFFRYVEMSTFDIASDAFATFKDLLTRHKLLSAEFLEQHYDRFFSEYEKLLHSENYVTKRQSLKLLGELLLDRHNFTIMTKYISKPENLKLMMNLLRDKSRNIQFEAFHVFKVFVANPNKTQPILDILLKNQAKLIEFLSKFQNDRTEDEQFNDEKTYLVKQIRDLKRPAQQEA

T1 sequence (P15056 whole entry): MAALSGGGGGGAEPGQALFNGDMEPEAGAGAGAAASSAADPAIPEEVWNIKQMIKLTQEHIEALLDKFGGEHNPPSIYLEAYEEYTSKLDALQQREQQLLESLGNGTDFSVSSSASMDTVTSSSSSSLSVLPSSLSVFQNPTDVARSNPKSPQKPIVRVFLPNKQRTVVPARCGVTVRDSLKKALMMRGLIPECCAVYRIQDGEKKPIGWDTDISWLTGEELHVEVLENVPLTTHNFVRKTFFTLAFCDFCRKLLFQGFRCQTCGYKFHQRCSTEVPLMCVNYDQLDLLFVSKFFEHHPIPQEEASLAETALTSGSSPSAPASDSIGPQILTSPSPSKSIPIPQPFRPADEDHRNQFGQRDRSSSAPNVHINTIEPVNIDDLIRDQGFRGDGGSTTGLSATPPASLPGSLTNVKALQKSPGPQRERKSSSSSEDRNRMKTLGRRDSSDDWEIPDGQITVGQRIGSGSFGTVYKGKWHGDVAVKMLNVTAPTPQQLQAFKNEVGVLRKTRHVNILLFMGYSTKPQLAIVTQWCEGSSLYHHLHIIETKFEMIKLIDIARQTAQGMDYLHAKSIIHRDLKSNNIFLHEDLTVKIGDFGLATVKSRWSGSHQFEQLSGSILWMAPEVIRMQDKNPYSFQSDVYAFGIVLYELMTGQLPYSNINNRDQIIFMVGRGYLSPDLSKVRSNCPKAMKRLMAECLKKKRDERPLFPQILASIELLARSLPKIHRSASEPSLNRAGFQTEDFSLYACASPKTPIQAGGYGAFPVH
COT1/MAP3K8, sequence (P41279 whole entry): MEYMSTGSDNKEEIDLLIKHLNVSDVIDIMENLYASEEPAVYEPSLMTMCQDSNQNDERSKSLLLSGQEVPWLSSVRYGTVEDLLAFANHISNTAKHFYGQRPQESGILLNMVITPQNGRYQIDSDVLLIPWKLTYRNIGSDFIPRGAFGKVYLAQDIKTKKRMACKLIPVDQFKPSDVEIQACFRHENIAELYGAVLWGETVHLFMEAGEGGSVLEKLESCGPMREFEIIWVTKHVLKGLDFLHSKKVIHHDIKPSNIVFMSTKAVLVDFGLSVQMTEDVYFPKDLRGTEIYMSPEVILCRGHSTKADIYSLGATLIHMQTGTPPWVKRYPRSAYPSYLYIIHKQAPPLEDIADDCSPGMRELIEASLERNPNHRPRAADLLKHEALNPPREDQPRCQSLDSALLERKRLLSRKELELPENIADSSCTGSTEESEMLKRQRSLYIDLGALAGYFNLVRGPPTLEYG
CDK3/cyclin E, sequence (Q00526 whole entry): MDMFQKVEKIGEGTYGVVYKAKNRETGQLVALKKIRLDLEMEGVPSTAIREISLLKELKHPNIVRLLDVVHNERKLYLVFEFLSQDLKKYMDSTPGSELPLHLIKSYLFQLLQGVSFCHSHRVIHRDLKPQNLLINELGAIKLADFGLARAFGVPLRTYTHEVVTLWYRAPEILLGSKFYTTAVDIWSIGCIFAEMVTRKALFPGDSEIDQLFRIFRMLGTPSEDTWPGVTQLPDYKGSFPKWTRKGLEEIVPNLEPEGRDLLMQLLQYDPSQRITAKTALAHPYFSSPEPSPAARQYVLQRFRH
CDK3/cyclin E, sequence (P24864 whole entry, further chain): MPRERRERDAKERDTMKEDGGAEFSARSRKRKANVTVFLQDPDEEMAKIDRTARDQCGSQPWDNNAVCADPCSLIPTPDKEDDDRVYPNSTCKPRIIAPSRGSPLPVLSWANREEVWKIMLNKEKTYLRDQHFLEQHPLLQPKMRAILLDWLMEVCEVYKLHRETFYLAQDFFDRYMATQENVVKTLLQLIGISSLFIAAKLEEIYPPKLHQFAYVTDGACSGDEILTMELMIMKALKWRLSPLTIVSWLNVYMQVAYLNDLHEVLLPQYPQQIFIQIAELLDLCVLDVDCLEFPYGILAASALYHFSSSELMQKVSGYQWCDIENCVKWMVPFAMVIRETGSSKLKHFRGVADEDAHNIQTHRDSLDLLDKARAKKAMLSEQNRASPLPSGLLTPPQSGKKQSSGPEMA

COc1cc(-c2cncc(-c3ccc(N4C[C@@H](C)N(C)[C@@H](C)C4)cc3)c2C)cc(F)c1C(N)=O [Compound 26c, 2-Fluoro-6-methoxy-4-(4-methyl-5-(4-((3R,5S)-3,4,5-trimethylpiperazin-1-yl)phenyl)pyridin-3-yl)benzamide]
remaining activity at 1 µM (CDK3/cyclin E): 78.7% | % enzyme activity (COT1/MAP3K8): 93.89% | % enzyme activity (BRAF): 40.52% | remaining activity at 1 µM (BRAF): 41.1% | remaining activity at 1 µM (KSR2): 98.5% | % enzyme activity (LKB1): 90.86%

COc1cc(-c2cncc(-c3ccc(N4CCN(C)CC4)cc3)c2C)cc(F)c1C(N)=O [Compound 26a, 2-Fluoro-6-methoxy-4-(4-methyl-5-(4-(4-methylpiperazin-1-yl)phenyl)pyridin-3-yl)benzamide]
remaining activity at 1 µM (CDK3/cyclin E): 82.7% | % enzyme activity (COT1/MAP3K8): 90.60% | % enzyme activity (BRAF): 28.77% | remaining activity at 1 µM (BRAF): 28.8% | remaining activity at 1 µM (KSR2): 96.9% | % enzyme activity (LKB1): 79.50%
